Laboratory results published in the supplement of paper PMC10627819.

Assays:
B. subtilis 168 [1] = test: fitness (endpoint OD595 vs no drug) (fraction); higher = more growth
Outline: (§1)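 Fitness is computed from the optical density at which cultures reach stationary phase, divided by the robust mean of no-drug control wells. Any value above 1 is set to 1. Cultures started at OD595 0.01 in 384-well plates with TSB, LB Lennox or CY at 37 °C, and OD595 was read every 30 min for 14 h against a first-reading background.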

S. pneumoniae D39V [2] = test: as above
Outline: as §1

B. subtilis 168 [3] = test: Bliss interaction score (quartile over a dose matrix) (fitness difference); higher = more antagonism (negative = synergy)
Outline: (§2)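 Fitness was derived from optical density at entry into stationary phase, divided by the robust mean of the no-drug wells on the same plate. That reading was taken as OD595, and the ratio was capped at 1. Single-drug fitness was inferred from the combination data. The Bliss score, observed fitness minus the expected product of single-drug fitness, was summarised as quartiles over technical, biological and donor/recipient replicates.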

S. aureus DSM 20231 = test: as above
Outline: as §2

S. pneumoniae D39V [4] = test: as above
Outline: as §2

S. aureus Newman = test: as above
Outline: as §2
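Wherever Bliss interaction score (quartile over a dose matrix) is given: first quartile when negative (synergy) and third quartile when positive (antagonism).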

CCC[C@@H]1C[C@@H](C(=O)N[C@@H]([C@H]2O[C@H](SC)[C@H](O)[C@@H](O)[C@H]2O)[C@@H](C)O)N(C)C1 [Lincomycin] + CN(C)C(=O)C(CCN1CCC(O)(c2ccc(Cl)cc2)CC1)(c1ccccc1)c1ccccc1 [Loperamide]
Details | fitness
B. subtilis 168 [1], first compound 0.1 µg/mL, partner 100 µg/mL | 0.0294
B. subtilis 168 [1], first compound 0.2 µg/mL, partner 100 µg/mL | 0.0794
B. subtilis 168 [1], first compound 0.4 µg/mL, partner 100 µg/mL | 0.0368
S. pneumoniae D39V [2], first compound 0.2 µg/mL, partner 17.14 µg/mL | 0.799
S. pneumoniae D39V [2], first compound 0.2 µg/mL, partner 34.28 µg/mL | 0.811
S. pneumoniae D39V [2], first compound 0.215 µg/mL, partner 20 µg/mL | 0.902
S. pneumoniae D39V [2], first compound 0.215 µg/mL, partner 40 µg/mL | 0.911
S. pneumoniae D39V [2], first compound 0.215 µg/mL, partner 80 µg/mL | 0.897
S. pneumoniae D39V [2], first compound 0.4 µg/mL, partner 17.14 µg/mL | 0.725
S. pneumoniae D39V [2], first compound 0.4 µg/mL, partner 34.28 µg/mL | 0.685
S. pneumoniae D39V [2], first compound 0.43 µg/mL, partner 20 µg/mL | 0.827
S. pneumoniae D39V [2], first compound 0.43 µg/mL, partner 40 µg/mL | 0.83
S. pneumoniae D39V [2], first compound 0.43 µg/mL, partner 80 µg/mL | 0.809
S. pneumoniae D39V [2], first compound 0.8 µg/mL, partner 17.14 µg/mL | 0.535
S. pneumoniae D39V [2], first compound 0.8 µg/mL, partner 34.28 µg/mL | 0.44
S. pneumoniae D39V [2], first compound 0.86 µg/mL, partner 20 µg/mL | 0.599
S. pneumoniae D39V [2], first compound 0.86 µg/mL, partner 40 µg/mL | 0.632
S. pneumoniae D39V [2], first compound 0.86 µg/mL, partner 80 µg/mL | 0.525

S. pneumoniae D39V [2], partner 68.57 µg/mL, one replicate
Details | fitness
first compound 0.2 µg/mL | 0.87
first compound 0.4 µg/mL | 0.769
first compound 0.8 µg/mL | 0.54

Details | Bliss interaction score
B. subtilis 168 [3] | -0.175
S. aureus DSM 20231 | -0.058
S. aureus Newman | -0.0788
S. pneumoniae D39V [4] | 0.187

CCC[C@@H]1C[C@@H](C(=O)N[C@@H]([C@H]2O[C@H](SC)[C@H](O)[C@@H](O)[C@H]2O)[C@@H](C)O)N(C)C1 [Lincomycin] + CN(C)c1cc(NC(=O)CNC(C)(C)C)c(O)c2c1C[C@H]1C[C@H]3[C@H](N(C)C)C(O)=C(C(N)=O)C(=O)[C@@]3(O)C(O)=C1C2=O [Tigecycline]
fitness
Details | first compound 0.1 µg/mL | first compound 0.2 µg/mL | first compound 0.215 µg/mL | first compound 0.4 µg/mL | first compound 0.43 µg/mL | first compound 0.8 µg/mL | first compound 0.86 µg/mL
B. subtilis 168 [1], partner 0.039 µg/mL | 0.894 | 0.865 | – | 0.979 | – | – | –
B. subtilis 168 [1], partner 0.078 µg/mL | 0.953 | 0.861 | – | 0.897 | – | – | –
B. subtilis 168 [1], partner 0.156 µg/mL | 0.924 | 0.867 | – | 0.846 | – | – | –
S. pneumoniae D39V [2], partner 0.65 µg/mL | – | 0.637 | 0.804 | 0.572 | 0.745 | 0.275 | 0.238
S. pneumoniae D39V [2], partner 1.3 µg/mL | – | 0.63 | 0.789 | 0.578 | 0.694 | 0.314 | 0.213
S. pneumoniae D39V [2], partner 2.6 µg/mL | – | 0.618 | 0.802 | 0.572 | 0.648 | 0.186 | 0.156

fitness, B. subtilis 168 [1], one replicate
Details | first compound 0.4 µg/mL | first compound 0.8 µg/mL | first compound 1.6 µg/mL
partner 0.125 µg/mL | 0.977 | ≥ 1 | 0.944
partner 0.25 µg/mL | 0.856 | 0.886 | 0.845
partner 0.5 µg/mL | 0.867 | 0.888 | 0.907

Details | Bliss interaction score
B. subtilis 168 [3] | -0.076
S. aureus DSM 20231 | -0.213
S. aureus Newman | 0.0588
S. pneumoniae D39V [4] | -0.133

CCC[C@@H]1C[C@@H](C(=O)N[C@@H]([C@H]2O[C@H](SC)[C@H](O)[C@@H](O)[C@H]2O)[C@@H](C)O)N(C)C1 [Lincomycin] + CN[C@@H]1[C@H](O[C@H]2[C@H](O[C@H]3[C@H](O)[C@@H](O)[C@H](N=C(N)N)[C@@H](O)[C@@H]3N=C(N)N)O[C@@H](C)[C@]2(O)C=O)O[C@@H](CO)[C@H](O)[C@H]1O [Streptomycin]
fitness
Details | first compound 0.1 µg/mL | first compound 0.2 µg/mL | first compound 0.215 µg/mL | first compound 0.4 µg/mL | first compound 0.43 µg/mL | first compound 0.8 µg/mL | first compound 0.86 µg/mL
B. subtilis 168 [1], partner 2 µg/mL | 0.935 | 0.913 | – | 0.9 | – | – | –
B. subtilis 168 [1], partner 8 µg/mL | – | – | – | 0.0442 | – | – | –
S. pneumoniae D39V [2], partner 2 µg/mL | – | – | 0.768 | – | 0.681 | – | 0.231
S. pneumoniae D39V [2], partner 4 µg/mL | – | 0.699 | 0.784 | 0.627 | 0.686 | 0.305 | 0.284
S. pneumoniae D39V [2], partner 8 µg/mL | – | 0.588 | 0.796 | 0.539 | 0.667 | 0.203 | 0.195

fitness, S. pneumoniae D39V [2], one replicate
Details | first compound 0.2 µg/mL | first compound 0.4 µg/mL | first compound 0.8 µg/mL
partner 2 µg/mL | 0.759 | 0.7 | 0.421
partner 16 µg/mL | 0.509 | 0.369 | 0.0724

Details | Bliss interaction score
B. subtilis 168 [3] | 0.105
S. aureus DSM 20231 | -0.107
S. aureus Newman | 0.0761
S. pneumoniae D39V [4] | -0.129
